According to patent US7166299B2, “Preparation of aqueous clear solution dosage forms with bile acids” (priority 1998, dated 2007):
“And” between values parts separate entries of the source, which are not always exact repeats. Equal values may be shown once.

Assay: Solution stability test (HPLC) of UDCA, branched chained amino acids and maltodextrin solution, Example IV
Format: physicochemical
Method: The stability tests were conducted on three different aqueous solution systems: […]. A bile acid and a high molecular weight aqueous soluble starch conversion product were combined in aqueous solution according to Example I, with results as shown in Tables 1A and 1B. • 2. Mixed bile acids and high molecular weight aqueous soluble starch conversion products were combined in aqueous solution according to Example II, with results as shown in Table 2. • 3. Bile acids, high molecular weight aqueous soluble starch conversion products and branched chained amino acids (e.g. leucine, isoleucine, valine, or other amino acid with a branched side chain) were combined in aqueous solution according to Example IV, with results as shown in Tables 3A through 3F. The stability tests were performed with HPLC and microscope light at various pH conditions under the normal and accelerated conditions. Accelerated conditions for testing pharmaceutical compositions have been described (Remington, The Science and Practice of Pharmacy, 19th ed., p. 640). […] Thus, the formulations of the examples are suitable for preparing a commercial liquid dosage form. […] Some formulations remain stable for over 2 years. Moreover, the solution stability tests were conducted on the aqueous solution dosage forms comprising the mixture of aqueous soluble UDCA, branched chained amino acid (leucine, isoleucine, valine) and maltodextrin according to example IV as a typical example of the solution dosage forms in which bile acid as a therapeutically active agent, as an adjuvant or carrier, pharmaceutically active agent, or enhancer of solubility, and high molecular weight aqueous soluble starch conversion products or soluble non-starch polysaccharides are dissolved. According to the test results, there is no discoloration, no clarity changes, and no precipitation. […] In the tables, the concentration of the indicated bile acid salt for each of the three numbered trials and the average thereof is reported on each line. The percentage indicates the relative concentration of the bile acid salt after incubation for a certain amount of time in comparison with the initial concentration. 85 mL of the aqueous solution in which soluble UDCA is dissolved was prepared, and then maltodextrin was added into the clear solution. Into the resulting clear solution, branched amino acids were added with adjusting the pH (4–7) with agitation and then sweetener, preservatives, and flavoring agent were added. Purified water was added to adjust the total volume to be 100 mL. Tables 3A to 3F show stability test results over time of formulation prepared with amino acids according to Example IV. All stability tests were conducted at 50° C. Stability test results at pH 1 (Table 3A), pH 3 (Table 3B), pH 5 (Table 3C), pH 7 (Table 3D), pH 9 (Table 3E), and pH 10 (Table 3F) are shown.

**Q.** What does the source list for CC[C@H](C)[C@H](N)C(=O)O [Ile, isoleucine]?
**A.** Percentage of day 0 concentration (Table 3A: pH1, 50° C., day 0): 100.0%; concentration by HPLC, Average (Table 3A: pH1, 50° C., day 0): 0.248; concentration by HPLC, trials #1-#3 (Table 3A: pH1, 50° C., day 0): 0.261 and 0.236 and 0.249; Percentage of day 0 concentration (Table 3A: pH1, 50° C., day 1): 105.0%; concentration by HPLC, Average (Table 3A: pH1, 50° C., day 1): 0.261; concentration by HPLC, trials #1-#3 (Table 3A: pH1, 50° C., day 1): 0.256 and 0.275 and 0.251; Percentage of day 0 concentration (Table 3A: pH1, 50° C., day 2): 104.9%; concentration by HPLC, Average (Table 3A: pH1, 50° C., day 2): 0.260; concentration by HPLC, trials #1-#3 (Table 3A: pH1, 50° C., day 2): 0.268 and 0.263 and 0.251; Percentage of day 0 concentration (Table 3A: pH1, 50° C., day 6): 114.6%; concentration by HPLC, Average (Table 3A: pH1, 50° C., day 6): 0.285; concentration by HPLC, trials #1-#3 (Table 3A: pH1, 50° C., day 6): 0.295 and 0.268 and 0.291; Percentage of day 0 concentration (Table 3A: pH1, 50° C., day 7): 103.4%; concentration by HPLC, Average (Table 3A: pH1, 50° C., day 7): 0.257; concentration by HPLC, trials #1-#3 (Table 3A: pH1, 50° C., day 7): 0.249 and 0.254 and 0.267; Percentage of day 0 concentration (Table 3A: pH1, 50° C., day 8): 98.8%; concentration by HPLC, Average (Table 3A: pH1, 50° C., day 8): 0.245; concentration by HPLC, trials #1-#3 (Table 3A: pH1, 50° C., day 8): 0.253 and 0.243 and 0.240; Percentage of day 0 concentration (Table 3A: pH1, 50° C., day 9): 106.6%; concentration by HPLC, Average (Table 3A: pH1, 50° C., day 9): 0.265; concentration by HPLC, trials #1-#3 (Table 3A: pH1, 50° C., day 9): 0.263 and 0.268; Percentage of day 0 concentration (Table 3B: pH 3, 50° C., day 0): 100.0%; concentration by HPLC, Average (Table 3B: pH 3, 50° C., day 0): 0.256; concentration by HPLC, trials #1-#3 (Table 3B: pH 3, 50° C., day 0): 0.261 and 0.254 and 0.253; Percentage of day 0 concentration (Table 3B: pH 3, 50° C., day 1): 103.3%; concentration by HPLC, Average (Table 3B: pH 3, 50° C., day 1): 0.265; concentration by HPLC, trials #1-#3 (Table 3B: pH 3, 50° C., day 1): 0.266 and 0.268 and 0.261; Percentage of day 0 concentration (Table 3B: pH 3, 50° C., day 2): 99.3%; concentration by HPLC, Average (Table 3B: pH 3, 50° C., day 2): 0.254; concentration by HPLC, trials #1-#3 (Table 3B: pH 3, 50° C., day 2): 0.273 and 0.243 and 0.247; Percentage of day 0 concentration (Table 3B: pH 3, 50° C., day 6): 117.4%; concentration by HPLC, Average (Table 3B: pH 3, 50° C., day 6): 0.301; concentration by HPLC, trials #1-#3 (Table 3B: pH 3, 50° C., day 6): 0.296 and 0.306 and 0.300; Percentage of day 0 concentration (Table 3B: pH 3, 50° C., day 7): 100.0%; concentration by HPLC, Average (Table 3B: pH 3, 50° C., day 7): 0.256; concentration by HPLC, trials #1-#3 (Table 3B: pH 3, 50° C., day 7): 0.247 and 0.265 and 0.257; Percentage of day 0 concentration (Table 3B: pH 3, 50° C., day 8): 96.7%; concentration by HPLC, Average (Table 3B: pH 3, 50° C., day 8): 0.248; concentration by HPLC, trials #1-#3 (Table 3B: pH 3, 50° C., day 8): 0.250 and 0.247; Percentage of day 0 concentration (Table 3B: pH 3, 50° C., day 13): 100.9%; concentration by HPLC, Average (Table 3B: pH 3, 50° C., day 13): 0.258; concentration by HPLC, trials #1-#3 (Table 3B: pH 3, 50° C., day 13): 0.285 and 0.240 and 0.250; Percentage of day 0 concentration (Table 3C: pH 5, 50° C., day 0): 100.0%; concentration by HPLC, Average (Table 3C: pH 5, 50° C., day 0): 0.279; concentration by HPLC, trials #1-#3 (Table 3C: pH 5, 50° C., day 0): 0.285 and 0.258 and 0.295; Percentage of day 0 concentration (Table 3C: pH 5, 50° C., day 3): 99.0%; concentration by HPLC, Average (Table 3C: pH 5, 50° C., day 3): 0.277; concentration by HPLC, trials #1-#3 (Table 3C: pH 5, 50° C., day 3): 0.280 and 0.275; Percentage of day 0 concentration (Table 3C: pH 5, 50° C., day 6): 98.7%; concentration by HPLC, Average (Table 3C: pH 5, 50° C., day 6): 0.276; concentration by HPLC, trials #1-#3 (Table 3C: pH 5, 50° C., day 6): 0.285 and 0.273 and 0.270; Percentage of day 0 concentration (Table 3C: pH 5, 50° C., day 10): 98.4%; concentration by HPLC, Average (Table 3C: pH 5, 50° C., day 10): 0.275; concentration by HPLC, trials #1-#3 (Table 3C: pH 5, 50° C., day 10): 0.274 and 0.276; Percentage of day 0 concentration (Table 3C: pH 5, 50° C., day 13): 100.0%; concentration by HPLC, Average (Table 3C: pH 5, 50° C., day 13): 0.279; concentration by HPLC, trials #1-#3 (Table 3C: pH 5, 50° C., day 13): 0.273 and 0.287 and 0.278; Percentage of day 0 concentration (Table 3C: pH 5, 50° C., day 17): 98.3%; concentration by HPLC, Average (Table 3C: pH 5, 50° C., day 17): 0.275; concentration by HPLC, trials #1-#3 (Table 3C: pH 5, 50° C., day 17): 0.278 and 0.276 and 0.270; Percentage of day 0 concentration (Table 3C: pH 5, 50° C., day 20): 95.0%; concentration by HPLC, Average (Table 3C: pH 5, 50° C., day 20): 0.266; concentration by HPLC, trials #1-#3 (Table 3C: pH 5, 50° C., day 20): 0.261 and 0.275; Percentage of day 0 concentration (Table 3C: pH 5, 50° C., day 24): 99.3%; concentration by HPLC, Average (Table 3C: pH 5, 50° C., day 24): 0.277; concentration by HPLC, trials #1-#3 (Table 3C: pH 5, 50° C., day 24): 0.267 and 0.274 and 0.292; Percentage of day 0 concentration (Table 3D: pH 7, 50° C., day 0): 100.0%; concentration by HPLC, Average (Table 3D: pH 7, 50° C., day 0): 0.289; concentration by HPLC, trials #1-#3 (Table 3D: pH 7, 50° C., day 0): 0.296 and 0.289 and 0.281; Percentage of day 0 concentration (Table 3D: pH 7, 50° C., day 5): 99.7%; concentration by HPLC, Average (Table 3D: pH 7, 50° C., day 5): 0.288; concentration by HPLC, trials #1-#3 (Table 3D: pH 7, 50° C., day 5): 0.300 and 0.282 and 0.281; Percentage of day 0 concentration (Table 3D: pH 7, 50° C., day 8): 95.5%; concentration by HPLC, Average (Table 3D: pH 7, 50° C., day 8): 0.276; concentration by HPLC, trials #1-#3 (Table 3D: pH 7, 50° C., day 8): 0.277 and 0.282 and 0.268; Percentage of day 0 concentration (Table 3D: pH 7, 50° C., day 12): 95.8%; concentration by HPLC, Average (Table 3D: pH 7, 50° C., day 12): 0.277; concentration by HPLC, trials #1-#3 (Table 3D: pH 7, 50° C., day 12): 0.273 and 0.278; Percentage of day 0 concentration (Table 3D: pH 7, 50° C., day 15): 93.5%; concentration by HPLC, Average (Table 3D: pH 7, 50° C., day 15): 0.270; concentration by HPLC, trials #1-#3 (Table 3D: pH 7, 50° C., day 15): 0.271 and 0.273 and 0.266; Percentage of day 0 concentration (Table 3D: pH 7, 50° C., day 19): 99.3%; concentration by HPLC, Average (Table 3D: pH 7, 50° C., day 19): 0.287; concentration by HPLC, trials #1-#3 (Table 3D: pH 7, 50° C., day 19): 0.294 and 0.285 and 0.281; Percentage of day 0 concentration (Table 3E: pH 9, 50° C., day 0): 100.0%; concentration by HPLC, Average (Table 3E: pH 9, 50° C., day 0): 0.286; concentration by HPLC, trials #1-#3 (Table 3E: pH 9, 50° C., day 0): 0.291 and 0.286 and 0.282; Percentage of day 0 concentration (Table 3E: pH 9, 50° C., day 3): 95.6%; concentration by HPLC, Average (Table 3E: pH 9, 50° C., day 3): 0.273; concentration by HPLC, trials #1-#3 (Table 3E: pH 9, 50° C., day 3): 0.266 and 0.273 and 0.282; Percentage of day 0 concentration (Table 3E: pH 9, 50° C., day 6): 95.9%; concentration by HPLC, Average (Table 3E: pH 9, 50° C., day 6): 0.274; concentration by HPLC, trials #1-#3 (Table 3E: pH 9, 50° C., day 6): 0.277 and 0.274 and 0.272; Percentage of day 0 concentration (Table 3E: pH 9, 50° C., day 10): 91.2%; concentration by HPLC, Average (Table 3E: pH 9, 50° C., day 10): 0.261; concentration by HPLC, trials #1-#3 (Table 3E: pH 9, 50° C., day 10): 0.243 and 0.245 and 0.295; Percentage of day 0 concentration (Table 3E: pH 9, 50° C., day 13): 87.4%; concentration by HPLC, Average (Table 3E: pH 9, 50° C., day 13): 0.250; concentration by HPLC, trials #1-#3 (Table 3E: pH 9, 50° C., day 13): 0.246 and 0.269 and 0.236; Percentage of day 0 concentration (Table 3E: pH 9, 50° C., day 17): 93.1%; concentration by HPLC, Average (Table 3E: pH 9, 50° C., day 17): 0.267; concentration by HPLC, trials #1-#3 (Table 3E: pH 9, 50° C., day 17): 0.275 and 0.280 and 0.245; Percentage of day 0 concentration (Table 3F: pH 10, 50° C., day 0): 100.0%; concentration by HPLC, Average (Table 3F: pH 10, 50° C., day 0): 0.287; concentration by HPLC, trials #1-#3 (Table 3F: pH 10, 50° C., day 0): 0.292; Percentage of day 0 concentration (Table 3F: pH 10, 50° C., day 2): 84.7%; concentration by HPLC, Average (Table 3F: pH 10, 50° C., day 2): 0.243; Percentage of day 0 concentration (Table 3F: pH 10, 50° C., day 5): 76.0%; concentration by HPLC, Average (Table 3F: pH 10, 50° C., day 5): 0.218; Percentage of day 0 concentration (Table 3F: pH 10, 50° C., day 7): 74.5%; concentration by HPLC, Average (Table 3F: pH 10, 50° C., day 7): 0.214; Percentage of day 0 concentration (Table 3F: pH 10, 50° C., day 9): 70.2%; concentration by HPLC, Average (Table 3F: pH 10, 50° C., day 9): 0.202; concentration by HPLC, trials #1-#3 (Table 3F: pH 10, 50° C., day 9): 0.206 and 0.192 and 0.207
